In publication PMC12735844, “2-(Trihydroxyphenyl)thienopyrimidinones as Key Scaffolds for Targeting a Novel Allosteric Site of HIV-1 Integrase” (Molecules, 2025):
Where “and” joins values, the source holds several entries; their conditions need not be identical. Equal entries are not always repeated. Where two headings read alike, the source gives them in different places.

Legend:
[1] = molecular target: T1, HIV-1 IN (wild-type) in the presence of LEDGF/p75 (Human immunodeficiency virus type 1 group M subtype B, UniProt P12497); assay: HTRF HIV-1 IN LEDGF/p75-dependent assay (3'-processing and strand transfer), wild-type IN, with or without sucrose; format: biochemical; settings: for IC50: IC50 IN LEDGF/p75-dependent integration
T1 construct: IN is a 32 kDa multimeric enzyme comprising three domains; His; made in house; host or cells: Escherichia coli BL21 (DE3)
Experimental: (§1) The IN LEDGF/p75-dependent and indepentent assay was performed for the evaluation of 3′-processing and strand-transfer IN reactions inhibition in the presence/absence of recombinant LEDGF/p75 protein, as previously described.
(§2) The same assay in the presence of HIV-1 IN wt, K173A and H185A mutant proteins, was used to evaluate the effect of sucrose in the presence of selected compounds.

wt RT RNase H = molecular target: wt RT RNase H; parameters: method as in PMID 33143469; settings: previously reported quinazolinone; cited from earlier work
[2] = molecular target: T1, HIV-1 IN (wild-type) in the presence of LEDGF/p75; parameters: method as in PMID 37764476, PMID 23631411; settings: previously reported dihydroxyphenyl-thienopyrimidinones; read-out: IN LEDGF/p75-dependent IC50; cited from earlier work
[3] = molecular target: T2, HIV-1 IN in the absence of LEDGF/p75 (Human immunodeficiency virus type 1 group M subtype B, UniProt P12497); assay: HTRF HIV-1 IN LEDGF/p75-independent assay; format: biochemical; settings: mean ± SE, three experiments, read-out: IC50 IN LEDGF/p75-independent integration
T2 construct: His; made in house; host or cells: Escherichia coli BL21 (DE3)
Experimental: as §1

human T-cell line CEM-SS = assay: Cytotoxicity in the XTT-based cell viability assay; settings: CEM-SS cells
Experimental: (§3) Antiviral activity of selected thienopyrimidinones was determined via the 2,3-bis[2-methoxy-4-nitro-5-sulfophenyl]-5-[(phenylamino)-carbonyl]-2H tetrazolium hydroxide (XTT)-based cell viability assay, using the HIV-1RF isolate and human T-cell line CEM-SS.

[4] = molecular target: T3, HIV-1 IN/LEDGF/p75 binding (Human immunodeficiency virus type 1 group M subtype B, UniProt P12497); assay: HTRF-based IN-LEDGF/p75 binding assay; settings: mean ± SE, three experiments
T3 construct: IN is a 32 kDa multimeric enzyme comprising three domains; made in house; host or cells: Escherichia coli BL21 (DE3)
Experimental: The IN-LEDGF/p75 binding was evaluated using a FRET method, in which His-IN was pre-incubated with test compounds in a mix buffer previously described, for 30 min at room temperature. After the addition of FLAG-LEDGF/p75 and a mixture of anti-His6-XL665 and anti-FLAG-EuCryptate antibodies, the reaction was read after 4 h at 4 °C, using 314 nm for excitation wavelength and […] and 620 nm for the wavelength of the acceptor and donor emission, respectively, with a Perkin Elmer Victor 3 plate reader (Perkin Elmer, Waltham, MA, USA), and the HTRF signal calculated by the emission ratio 665 nm/620 nm multiplied by 10.000.

[5] = system: HIV-1RF isolate in CEM-SS cells; assay: Antiviral activity, XTT-based cell viability assay
Experimental: as §3

HIV-1 IN multimerization = molecular target: T4, HIV-1 IN multimerization (Human immunodeficiency virus type 1 group M subtype B, UniProt P12497); assay: HTRF-based assay of higher-order, aberrant IN multimerization; format: biochemical; settings: dash = no induction of higher-order
T4 construct: IN is a 32 kDa multimeric enzyme comprising three domains; made in house; host or cells: Escherichia coli BL21 (DE3)
Experimental: (§4) HIV-1 His and FLAG-tagged INs were mixed in a mix buffer previously described and compounds added to the mixture and incubated for 2.5 h at room temperature. At the end of the time, a mixture of anti-His6-XL665 and anti-FLAG-EuCryptate antibodies were added to the reaction and, after an incubation time of 3 h, the HTRF signal was recorded as described in the previous paragraph.

HIV-1 IN H185A mutant = molecular target: T5, HIV-1 IN H185A mutant (Human immunodeficiency virus type 1 group M subtype B, UniProt P12497, F1332A); assay: HTRF IN LEDGF/p75-dependent assay on H185A mutant, with or without sucrose; format: biochemical; settings: for IC50: LEDGF/p75-dependent activity; for Fold of increase of potency, H185A mutant: with sucrose vs alone
T5 construct: IN is a 32 kDa multimeric enzyme comprising three domains; His; made in house; host or cells: Escherichia coli BL21 (DE3)
Experimental: (§5) The commercial QuikChange mutagenesis Kit (Agilent Technologies Inc., Santa Clara, CA, USA) were used to introduce the selected substitutions on HIV-1 IN wt plasmid and the correct presence of alanine in 173 and 185 position were evaluated in the electropherogram provided by Bio-Fab, after the sequencing.
(§6) HIV-1 IN wt, K173A and H185A mutant proteins were expressed in Escherichia coli strain BL21 (DE3) after transformation with a plasmid containing protein gene. Recombinant proteins were then purified using a Ni-Sepharose column and a heparin column and stored as previously described. LEDGF/p75 with 6-his and FLAG tags were purified with a heparin column and a Superdex 200 GL (Merck Sigma Aldrich, Milan, Italy) column previously described.
as §1, §2

[6] = molecular target: T6, HIV-1 IN-IN subunit exchange (Human immunodeficiency virus type 1 group M subtype B, UniProt P12497); assay: HTRF-based IN-IN subunit exchange assay; format: biochemical; settings: for IC50: mean ± SE, three experiments
T6 construct: IN is a 32 kDa multimeric enzyme comprising three domains; made in house; host or cells: Escherichia coli BL21 (DE3)
Experimental: as §4

HIV-1 IN K173A mutant = molecular target: T7, HIV-1 IN K173A mutant (Human immunodeficiency virus type 1 group M subtype B, UniProt P12497, K1320A); assay: HTRF IN LEDGF/p75-dependent assay on K173A mutant, with or without sucrose; format: biochemical; settings: for Fold of increase of potency, K173A mutant: with sucrose vs alone
T7 construct: IN is a 32 kDa multimeric enzyme comprising three domains; His; made in house; host or cells: Escherichia coli BL21 (DE3)
Experimental: as §5, §6, §1, §2

[7] = in the presence of LEDGF/p75, compound alone, mean ± SE, three experiments
[8] = LEDGF/p75-dependent, IC50 alone vs with sucrose
[9] = HIV-1 IN H185A mutant IC50 alone, no sucrose
[10] = HIV-1 IN H185A mutant IC50 with sucrose, in the presence of sucrose

Cc1sc2nc(-c3cc(O)c(O)cc3O)[nH]c(=O)c2c1C [C00002]
IC50 [1, 7]: 0.45 ± 0.09 µM

O=c1[nH]c(-c2cc(O)c(O)c(O)c2)nc2sc3c(c12)CCCCC3 [C00006]
IC50 [1, 7]: 0.31 ± 0.035 µM

O=c1[nH]c(-c2c(O)cc(O)cc2O)nc2sc3c(c12)CCCCC3 [C00007]
IC50 [1, 7]: 5.2 ± 1.2 µM

O=c1[nH]c(-c2cc(O)c(O)cc2O)nc2sc3c(c12)CCC3 [C00008]
IC50 [1, 7]: 1.96 ± 0.125 µM

O=c1[nH]c(-c2cc(O)c(O)c(O)c2)nc2sc3c(c12)CCC3 [C00009]
IC50 [1, 7]: 0.87 ± 0.045 µM

O=c1[nH]c(-c2ccc(O)c(O)c2)nc2ccc(I)cc12 [Compound 1]
IC50 (wt RT RNase H): 0.11 ± 0.01 µM

Cc1sc2nc(-c3cc(O)cc(O)c3)[nH]c(=O)c2c1C [Compound 2]
IC50 [2]: 3.7 ± 0.73 µM

O=c1[nH]c(-c2cc(O)cc(O)c2)nc2sc3c(c12)CCCCC3 [Compound 3]
IC50 [2]: 3.37 ± 0.48 µM

Cc1sc2nc(-c3cc(O)ccc3O)[nH]c(=O)c2c1C [Compound 4]
IC50 [2]: 85 ± 6 µM

Cc1sc2nc(-c3cc(O)c(O)c(O)c3)[nH]c(=O)c2c1C [Compound 5, 5,6-Dimethyl-2-(3,4,5-trihydroxyphenyl)thieno[2,3-d]pyrimidin-4(3H)-one]
IC50 [1, 7]: 8 ± 2 µM
IC50 [3]: 5.35 ± 0.55 µM

Cc1sc2nc(-c3cc(O)c(O)cc3O)[nH]c(=O)c2c1C [Compound 6, 5,6-Dimethyl-2-(2,4,5-trihydroxyphenyl)thieno[2,3-d]pyrimidin-4(3H)-one]
reduction in activity by sucrose (times) [1, 8]: approximately 10
cytotoxicity (human T-cell line CEM-SS): devoid of cytotoxicity
IC50 [4]: 75 ± 12 µM
effect on viral replication [5]: not able to inhibit viral replication
IC50 [3]: 0.76 ± 0.01 µM
MI50 IN multimerization (HIV-1 IN multimerization): none succeeded in inducing multimerization
IC50 (HIV-1 IN H185A mutant; [9]): 4.64 ± 0.7 µM
IC50 (HIV-1 IN H185A mutant; [10]): 0.48 ± 0.08 µM
Fold of increase of potency, H185A mutant (HIV-1 IN H185A mutant): 9.7
IC50 [6]: 5.45 ± 0.05 µM
IC50 (HIV-1 IN K173A mutant): 6.5 ± 1.7 µM
Fold of increase of potency, K173A mutant (HIV-1 IN K173A mutant): 32.5

Cc1sc2nc(-c3c(O)cc(O)cc3O)[nH]c(=O)c2c1C [Compound 7, 5,6-Dimethyl-2-(2,4,6-trihydroxyphenyl)thieno[2,3-d]pyrimidin-4(3H)-one]
IC50 [1, 7]: 6.1 ± 1.6 µM

Cc1sc2nc(-c3ccc(O)c(O)c3O)[nH]c(=O)c2c1C [Compound 8, 5,6-Dimethyl-2-(2,3,4-trihydroxyphenyl)thieno[2,3-d]pyrimidin-4(3H)-one]
IC50 [1, 7]: 11.8 ± 1.85 µM

O=c1[nH]c(-c2cc(O)c(O)cc2O)nc2sc3c(c12)CCCCC3 [Compound 9, 2-(2,4,5-Trihydroxyphenyl)-3,5,6,7,8,9-hexahydro-4H-cyclohepta[4,5]thieno[2,3-d]pyrimidin-4-one]
IC50 [1, 7]: 0.965 ± 0.035 µM
IC50 [4]: > 100 µM
IC50 IN/LEDGF/p75 binding [4]: inactive
IC50 [3]: 0.99 ± 0.09 µM
MI50 IN multimerization (HIV-1 IN multimerization): none succeeded in inducing multimerization
IC50 [6]: 6.35 ± 1.35 µM

O=c1[nH]c(-c2cc(O)c(O)c(O)c2)nc2sc3c(c12)CCCCC3 [Compound 10, 2-(3,4,5-Trihydroxyphenyl)-3,5,6,7,8,9-hexahydro-4H-cyclohepta[4,5]thieno[2,3-d]pyrimidin-4-one]
IC50 [1, 7]: 0.31 µM and 0.315 µM
increase of inhibitory capacity by sucrose (times) [1, 8]: ~16
cytotoxicity (human T-cell line CEM-SS): devoid of cytotoxicity
IC50 [4]: 6.16 ± 0.98 µM
effect on viral replication [5]: not able to inhibit viral replication
IC50 [3]: 3.6 ± 0.39 µM
MI50 IN multimerization (HIV-1 IN multimerization): none succeeded in inducing multimerization
IC50 (HIV-1 IN H185A mutant; [9]): 2.27 ± 0.43 µM
IC50 (HIV-1 IN H185A mutant; [10]): 0.61 ± 0.022 µM
Fold of increase of potency, H185A mutant (HIV-1 IN H185A mutant): 3.7
IC50 [6]: 2.05 ± 0.35 µM
IC50 (HIV-1 IN K173A mutant): 3.3 ± 0.86 µM
Fold of increase of potency, K173A mutant (HIV-1 IN K173A mutant): 13.2

O=c1[nH]c(-c2cc(O)c(O)cc2O)nc2sc3c(c12)CCC3 [Compound 12, 2-(2,4,5-Ttrihydroxyphenyl)-3,5,6,7-tetrahydro-4H-cyclopenta[4,5]thieno[2,3-d]pyrimidin-4-one]
IC50 [4]: 24.7 ± 1.75 µM
IC50 [3]: 0.86 ± 0.14 µM
MI50 IN multimerization (HIV-1 IN multimerization): none succeeded in inducing multimerization
IC50 [6]: 17.3 ± 1.7 µM

O=c1[nH]c(-c2cc(O)c(O)c(O)c2)nc2sc3c(c12)CCC3 [Compound 13, 2-(3,4,5-Trihydroxyphenyl)-3,5,6,7-tetrahydro-4H-cyclopenta[4,5]thieno[2,3-d]pyrimidin-4-one]
IC50 [3]: 1.12 ± 0.22 µM

CCCC(C(=O)O)c1c(C)nc2ccc(Cl)cc2c1-c1ccccc1 (centres unmarked) [LEDGIN-6, reference compound]
IC50 [1, 7]: 9 ± 2 µM
IC50 [4]: 10 ± 0.4 µM
IC50 [3]: 10 ± 2 µM
EC50 (HIV-1 IN multimerization; read-out: MI50 IN multimerization): 10 ± 1 µM
IC50 [6]: > 100 µM
percentage in parentheses after >100, IN-IN subunit exchange ([6]; meaning of the bracketed percentage is not defined in the paper): >100 (100%)

OC[C@H]1O[C@@](CO)(O[C@H]2O[C@H](CO)[C@@H](O)[C@H](O)[C@H]2O)[C@@H](O)[C@@H]1O [sucrose, reference compound]
IC50 IN LEDGF/p75-dependent integration [1, 7]: inactive
